# Values of other authors as cited in US7892575B2, “Orodispersible pharmaceutical composition for oromucosal or sublingual administration of agomelatine” (Les Laboratoires Servier, priority 2005, dated 2011).
# Conditions: humans
smiles,measurement,value
"COc1ccc2cccc(CCNC(C)=O)c2c1 [agomelatine, N-[2-(7-methoxy-1-naphthyl)ethyl]acetamide]",bioavailability by the oral route in relation to the parenteral route,very low
